Reference: patent publication US7026343B2, “Pharmacologic inhibition of Myc function” (University of Pittsburgh - of the Commonwealth System of …, priority 2002, dated 2006)

Key:
Rat1a-c-Myc cells [1] = experiment: In vivo tumor growth of pre-treated Rat1a-c-Myc cells in nude mice; settings: cells exposed 3 days to compound, then inoculated subcutaneously; no further compound
Description: All growth curves were performed in 12-well tissue culture plates as previously described (Yin et al., (1999b)). Rat1a-neo, Rat1a-c-Myc, and TGR-1 fibroblasts were seeded at an initial density of 2×10^3 cells/well whereas HO15.19 c-Myc KO cells were seeded at 5×10^3 cells/well. The following day, each compound, or DMSO vehicle alone, was added to the indicated final concentrations. Fresh medium and compound were added every 3–4 days. Cells were trypsinized and manually counted at the indicated times. […] For in vivo assays, Rat1a-c-Myc cells were grown to approximately 50% confluency. Fresh medium plus the indicated compounds, or DMSO vehicle alone, were then added to cells for an additional 3 days. At the end of this time, none of the cultures contained fewer than […] apoptotic cells as determined by trypan blue staining and TUNEL assays. The cells were then washed twice in PBS, trypsinized and resuspended in a minimal volume of fresh medium containing the same concentration of compound. In total, 2×10^7 cells were then inoculated subcutaneously into the flanks of nude mice (five animals per group) and no additional compound was administered for the duration of the experiment. Tumor growth was monitored weekly and the average tumor volume ([…].) was calculated as previously described (Yin X. Y., Grove E., Rogulski K. and Prochownik E. V., (2002), J. Biol. Chem., 277:19998–20010).
Rat1a-c-Myc cells form rapidly growing tumors in nude mice (Yin et al., 1999b). […] Rat1a-c-Myc cells were therefore exposed to the indicated Myc-Max-specific compounds for 3 days at the concentrations shown in FIG. 4. […] These cells were then inoculated into nude mice and monitored for tumor formation. Rat1a-c-Myc cells that had been incubated for 3 days in DMSO vehicle only served as a positive control.
Rat1a-c-Myc cells were exposed to the indicated Myc-Max-specific compounds for 3 days at the concentrations shown in FIG. 4, and then inoculated subcutaneously into the flanks of nude mice (five animals per group). Based on trypan blue staining, >95% of the inoculated cells were viable at the time of inoculation. Tumor growth was monitored and recorded weekly. Each point indicates the average tumor volume among the groups ±1 s.e.

Rat1a-c-Myc cells [2] = experiment: Cell cycle profiles by propidium iodide flow cytometry; format: cell-based, rat; settings: 24 h, concentrations of FIG. 4
Description: This assay was performed as previously described (Nesbit C. E., Grove L. E., Yin X. Y. and Prochownik E. V. (1998), Cell Growth Differ., 9:731–741; Nesbit C. E., Tersak J. M., Grove L. E., Drzal A., Choi H. and Prochownik E. V. (2000), Oncogene, 19:3200–3212; and Yin X. Y., Grove L., Datta N., Katula K., Long M. W. and Prochownik E. V. (2001), Cancer Res., 61:6487–6493). Cell cycle profiles were performed on propidium iodide-stained nuclei as previously described (Yin et al., (1999a)) using a Becton-Dickinson FACStar flow cytometer. A total of 2×10^4 cells were analyzed in triplicate for each point and quantitation was performed using single histogram statistics.
In contrast to c-Myc's promotion of cell cycle progression, its inhibition halts this process and results in an accumulation of cells in G0/G1 (Freytag S. O. (1988), Mol. Cell. Biol., 8:1614–1624; Prochownik et al., 1988 and deAlboran et al., 2001). Therefore, it was asked whether any of the above compounds could affect the cell cycle profiles of otherwise actively proliferating cells. Rat1a-c-Myc cells were plated at low concentrations and grown for 2 additional days until attaining approximately 30% confluency. The cells were then re-fed with fresh medium alone, medium containing DMSO only, or medium containing each of the Myc-Max-specific compounds. After 24 h, cells were harvested and cell cycle profiles were generated by flow cytometry following propidium iodide staining (Yin et al., 2001). […] In contrast, all of the compounds tested caused significant increases in the fraction of the G0/G1 population.

**Q.** Which “inhibition of in vivo tumor growth” value (Rat1a-c-Myc cells [1]) does the source give for `O=[N+]([O-])c1ccc(CCNC2CC3CCC2C3)cc1` (stereo not shown) [#10009, bicyclo[2.2.1]hept-2-yl-[2-(4-nitro-phenyl)-ethyl]-amine] here?
**A.** inhibition of in vivo tumor growth

**Q.** What about the “% of cells in G0/G1” value (Rat1a-c-Myc cells [2]) of the same molecule?
**A.** 66.3%

**Q.** And the “% of cells in G2/M” value (Rat1a-c-Myc cells [2])?
**A.** 10.6%

**Q.** What about the “% of cells in S” value (Rat1a-c-Myc cells [2]) of the same molecule?
**A.** 23.1%

**Q.** What does the source list for `CCCOc1ccc(N2C(=O)CC(N3CCC(C(=O)O)CC3)C2=O)cc1` (stereo not shown) [#10031, 1-[2,5-dioxo-1-(4-propoxy-phenyl)-pyrrolidin-3-yl]-piperidine-4-carboxylic acid]?
**A.** % of cells in G0/G1 (Rat1a-c-Myc cells [2]): 60.9%; % of cells in G2/M (Rat1a-c-Myc cells [2]): 5.2%; % of cells in S (Rat1a-c-Myc cells [2]): 33.9%

**Q.** With `Cc1ccc2c(c1)C(=NNc1nc(C)c(C(=O)Nc3cccc([N+](=O)[O-])c3)s1)CC(c1ccccc1)O2` (stereo not shown) [#10050, 4-methyl-2-[N′-(6-methyl-2-phenyl-chroman-4-ylidene)-hydrazino]-thiazole-5-carboxylic acid (3-nitrophenyl)-amide] as the molecule, how does the “inhibition of in vivo tumor growth” value (Rat1a-c-Myc cells [1]) read?
**A.** inhibition of in vivo tumor growth

**Q.** And the “% of cells in G0/G1” value (Rat1a-c-Myc cells [2])?
**A.** 58.7%

**Q.** What about the “% of cells in G2/M” value (Rat1a-c-Myc cells [2]) of the same molecule?
**A.** 11.7%

**Q.** What about the “% of cells in S” value (Rat1a-c-Myc cells [2]) of the same molecule?
**A.** 29.6%

**Q.** With `CCc1ccc(C=C2SC(=S)NC2=O)cc1` [#10058, 5-(4-ethyl-benzylidene)-2-thioxothiazolidin-4-one] as the molecule, how does the “inhibition of in vivo tumor growth” value (Rat1a-c-Myc cells [1]) read?
**A.** inhibition of in vivo tumor growth

**Q.** What about the “% of cells in G0/G1” value (Rat1a-c-Myc cells [2]) of the same molecule?
**A.** 62.6%

**Q.** What about the “% of cells in G2/M” value (Rat1a-c-Myc cells [2]) of the same molecule?
**A.** 13.7%

**Q.** What about the “% of cells in S” value (Rat1a-c-Myc cells [2]) of the same molecule?
**A.** 23.7%

**Q.** `O=C1CSC(=O)N1CC(O)Cn1c2ccc(Cl)cc2c2cc(Cl)ccc21` (stereo not shown) [#10074A4, 3-[3-(3,6-dichloro-carbazol-9-yl)-2-hydroxy-propyl]-thiazolidine-2,4-dione] was tested. Which “inhibition of in vivo tumor growth” value (Rat1a-c-Myc cells [1]) did it give?
**A.** inhibition of in vivo tumor growth

**Q.** What about the “% of cells in G0/G1” value (Rat1a-c-Myc cells [2]) of the same molecule?
**A.** 68.7%

**Q.** And the “% of cells in G2/M” value (Rat1a-c-Myc cells [2])?
**A.** 9.8%

**Q.** What about the “% of cells in S” value (Rat1a-c-Myc cells [2]) of the same molecule?
**A.** 21.5%

**Q.** Which results are given for `O=[N+]([O-])c1ccc(Nc2ccccc2-c2ccccc2)c2nonc12` [#10074G4, biphenyl-2-yl-(7-nitro-benzo[1,2,5]oxadiazol-4-yl)-amine]?
**A.** % of cells in G0/G1 (Rat1a-c-Myc cells [2]): 53.9%; % of cells in G2/M (Rat1a-c-Myc cells [2]): 7.4%; % of cells in S (Rat1a-c-Myc cells [2]): 38.7%

**Q.** Which “% of cells in G0/G1” value (Rat1a-c-Myc cells [2]) does the source give for `CCN(CC)C1CC(=O)N(c2cccc(Cl)c2)C1=O` (stereo not shown) [#10075, 1-(3-Chloro-phenyl)-3-diethylamino-pyrrolidine-2,5-dione] here?
**A.** 65.1%

**Q.** What about the “% of cells in G2/M” value (Rat1a-c-Myc cells [2]) of the same molecule?
**A.** 10.7%

**Q.** What about the “% of cells in S” value (Rat1a-c-Myc cells [2]) of the same molecule?
**A.** 24.2%
